Test results published in ChEMBL document CHEMBL4715814, “Design, synthesis and biological activity evaluation of novel 4-subtituted 2-naphthamide derivatives as AcrB inhibitors” (2018).
The source made the active and inactive calls. The rule behind the calls is not given here.

Tests used:
[1] = system: Escherichia coli; test: Potentiation of TPP-induced antibacterial activity against AcrB deficient Escherichia coli BW25113 assessed as TPP MIC at 512 ug/ml incubated for 18 hrs under aerobic condition by checkerboard titration assay (reference value: 256 ug/ml); type: functional; settings: dose 512 µg/ml
[2] = system: Escherichia coli; test: Potentiation of erythromycin-induced antibacterial activity against AcrB deficient Escherichia coli BW25113 assessed as erythromycin MIC at 512 ug/ml incubated for 18 hrs under aerobic condition by checkerboard titration assay (reference value: 32 ug/ml); type: functional; settings: dose 512 µg/ml
[3] = system: Escherichia coli; test: Potentiation of TPP-induced antibacterial activity against wild type Escherichia coli BW25113 assessed as TPP MIC at 512 ug/ml incubated for 18 hrs under aerobic condition by checkerboard titration assay (reference value: 1024 ug/ml); type: functional; settings: dose 512 µg/ml
[4] = system: Escherichia coli; test: Potentiation of TPP-induced antibacterial activity against wild type Escherichia coli BW25113 assessed as TPP MIC at 256 ug/ml incubated for 18 hrs under aerobic condition by checkerboard titration assay (reference value: 1024 ug/ml); type: functional; settings: dose 256 µg/ml
[5] = system: Escherichia coli; test: Potentiation of chloramphenicol-induced antibacterial activity against wild type Escherichia coli BW25113 assessed as chloramphenicol MIC at 512 ug/ml incubated for 18 hrs under aerobic condition by checkerboard titration assay (reference value: 16 ug/ml); type: functional; settings: dose 512 µg/ml
[6] = system: Escherichia coli; test: Potentiation of chloramphenicol-induced antibacterial activity against wild type Escherichia coli BW25113 assessed as chloramphenicol MIC at 256 ug/ml incubated for 18 hrs under aerobic condition by checkerboard titration assay (reference value: 16 ug/ml); type: functional; settings: dose 256 µg/ml
[7] = system: Escherichia coli; test: Potentiation of rifampicin-induced antibacterial activity against wild type Escherichia coli BW25113 assessed as rifampicin MIC at 256 ug/ml incubated for 18 hrs under aerobic condition by checkerboard titration assay (reference value: 16 ug/ml); type: functional; settings: dose 256 µg/ml
[8] = system: Escherichia coli; test: Potentiation of erythromycin-induced antibacterial activity against wild type Escherichia coli BW25113 assessed as erythromycin MIC at 512 ug/ml incubated for 18 hrs under aerobic condition by checkerboard titration assay (reference value: 128 ug/ml); type: functional; settings: dose 512 µg/ml
[9] = system: Escherichia coli; test: Potentiation of erythromycin-induced antibacterial activity against wild type Escherichia coli BW25113 assessed as erythromycin MIC at 256 ug/ml incubated for 18 hrs under aerobic condition by checkerboard titration assay (reference value: 128 ug/ml); type: functional; settings: dose 256 µg/ml
[10] = system: Cell membrane; test: Induction of outer membrane permeabilization in wild type Escherichia coli BW25113 assessed as increase in nitrocefin hydrolysis at 512 ug/ml measured for 30 mins in presence of CCCP by spectrophotometry analysis; type: subcellular; settings: dose 512.0 µg/ml
[11] = system: Escherichia coli; test: Potentiation of chloramphenicol-induced antibacterial activity against AcrB deficient Escherichia coli BW25113 assessed as chloramphenicol MIC at 256 ug/ml incubated for 18 hrs under aerobic condition by checkerboard titration assay (reference value: 2 ug/ml); type: functional; settings: dose 256 µg/ml
[12] = system: Escherichia coli; test: Potentiation of TPP-induced antibacterial activity against AcrB deficient Escherichia coli BW25113 assessed as TPP MIC at 256 ug/ml incubated for 18 hrs under aerobic condition by checkerboard titration assay (reference value: 256 ug/ml); type: functional; settings: dose 256 µg/ml
[13] = system: Escherichia coli; test: Potentiation of erythromycin-induced antibacterial activity against AcrB deficient Escherichia coli BW25113 assessed as erythromycin MIC at 256 ug/ml incubated for 18 hrs under aerobic condition by checkerboard titration assay (reference value: 32 ug/ml); type: functional; settings: dose 256 µg/ml
[14] = system: Escherichia coli; test: Potentiation of TPP-induced antibacterial activity against wild type Escherichia coli BW25113 assessed as TPP MIC at 128 ug/ml incubated for 18 hrs under aerobic condition by checkerboard titration assay (reference value: 1024 ug/ml); type: functional; settings: dose 128 µg/ml
[15] = system: Escherichia coli; test: Potentiation of chloramphenicol-induced antibacterial activity against wild type Escherichia coli BW25113 assessed as chloramphenicol MIC at 128 ug/ml incubated for 18 hrs under aerobic condition by checkerboard titration assay (reference value: 16 ug/ml); type: functional; settings: dose 128 µg/ml
[16] = system: Escherichia coli; test: Potentiation of rifampicin-induced antibacterial activity against wild type Escherichia coli BW25113 assessed as rifampicin MIC at 128 ug/ml incubated for 18 hrs under aerobic condition by checkerboard titration assay (reference value: 16 ug/ml); type: functional; settings: dose 128 µg/ml
[17] = system: Cell membrane; test: Disruption of inner membrane potential in wild type Escherichia coli BW25113 at 512 ug/ml preincubated for 10 mins followed by glucose stimulation and CCCP addition by DiOC2 probe based fluorimetric analysis; type: subcellular; settings: dose 512.0 µg/ml
[18] = system: Escherichia coli; test: Potentiation of erythromycin-induced antibacterial activity against wild type Escherichia coli BW25113 assessed as erythromycin MIC at 128 ug/ml incubated for 18 hrs under aerobic condition by checkerboard titration assay (reference value: 128 ug/ml); type: functional; settings: dose 128 µg/ml
[19] = system: Escherichia coli; test: Antibacterial activity against AcrB deficient Escherichia coli BW25113 assessed as inhibition of bacterial growth at 256 ug/ml after 18 hrs by microtitre broth dilution assay; type: functional, organism-based; settings: dose 256.0 µg/ml
[20] = system: Escherichia coli; test: Antibacterial activity against wild type Escherichia coli BW25113 assessed as inhibition of bacterial growth at 256 ug/ml after 18 hrs by microtitre broth dilution assay; type: functional, organism-based; settings: dose 256.0 µg/ml
[21] = system: Escherichia coli; test: Antibacterial activity against Wild type Escherichia coli BW25113 assessed as inhibition of AcrB efflux pump by mesuring the glucose-induced nile red efflux at 100 uM preincubated with CCCP for 15 mins followed by compound addition after 15 mins nile red added and incubated for 3 hrs in shaker by fluorimetric analysis; type: functional, organism-based; settings: time 195.0 min
[22] = system: Escherichia coli; test: Potentiation of chloramphenicol-induced antibacterial activity against AcrB deficient Escherichia coli BW25113 assessed as chloramphenicol MIC at 512 ug/ml incubated for 18 hrs under aerobic condition by checkerboard titration assay (reference value: 2 ug/ml); type: functional; settings: dose 512 µg/ml
[23] = system: Escherichia coli; test: Potentiation of chloramphenicol-induced antibacterial activity against wild type Escherichia coli BW25113 assessed as fold reduction in chloramphenicol MIC at 256 ug/ml incubated for 18 hrs under aerobic condition by checkerboard titration assay relative to chloramphenicol MIC alone; type: functional; settings: dose 256 µg/ml
[24] = system: Escherichia coli; test: Potentiation of chloramphenicol-induced antibacterial activity against wild type Escherichia coli BW25113 assessed as fold reduction in chloramphenicol MIC at 128 ug/ml incubated for 18 hrs under aerobic condition by checkerboard titration assay relative to chloramphenicol MIC alone; type: functional; settings: dose 128 µg/ml
[25] = system: Escherichia coli; test: Antibacterial activity against Wild type Escherichia coli BW25113 assessed as inhibition of AcrB efflux pump by mesuring the glucose-induced nile red efflux at 200 uM preincubated with CCCP for 15 mins followed by compound addition after 15 mins nile red added and incubated for 3 hrs in shaker by fluorimetric analysis; type: functional, organism-based; settings: time 195.0 min
[26] = system: Escherichia coli; test: Potentiation of TPP-induced antibacterial activity against AcrB deficient Escherichia coli BW25113 assessed as TPP MIC at 128 ug/ml incubated for 18 hrs under aerobic condition by checkerboard titration assay (reference value: 256 ug/ml); type: functional; settings: dose 128 µg/ml
[27] = system: Escherichia coli; test: Potentiation of chloramphenicol-induced antibacterial activity against AcrB deficient Escherichia coli BW25113 assessed as chloramphenicol MIC at 128 ug/ml incubated for 18 hrs under aerobic condition by checkerboard titration assay (reference value: 2 ug/ml); type: functional; settings: dose 128 µg/ml
[28] = system: Escherichia coli; test: Potentiation of erythromycin-induced antibacterial activity against AcrB deficient Escherichia coli BW25113 assessed as erythromycin MIC at 128 ug/ml incubated for 18 hrs under aerobic condition by checkerboard titration assay (reference value: 32 ug/ml); type: functional; settings: dose 128 µg/ml
[29] = system: Escherichia coli; test: Potentiation of erythromycin-induced antibacterial activity against wild type Escherichia coli BW25113 assessed as fold reduction in erythromycin MIC at 128 ug/ml incubated for 18 hrs under aerobic condition by checkerboard titration assay relative to erythromycin MIC alone; type: functional; settings: dose 128 µg/ml

| Structure (SMILES) | MIC [1] [µg/mL] | MIC [2] [µg/mL] | MIC [3] [µg/mL] | MIC [4] [µg/mL] | MIC [5] [µg/mL] | MIC [6] [µg/mL] | MIC [7] [µg/mL] | MIC [8] [µg/mL] | MIC [9] [µg/mL] | Activity [10] | MIC [11] [µg/mL] | MIC [12] [µg/mL] | MIC [13] [µg/mL] | MIC [14] [µg/mL] | MIC [15] [µg/mL] | MIC [16] [µg/mL] | Activity [17] | MIC [18] [µg/mL] | Activity [21] | fold change (FC) [23] | other results |
| --- | --- | --- | --- | --- | --- | --- | --- | --- | --- | --- | --- | --- | --- | --- | --- | --- | --- | --- | --- | --- | --- |
| O=C(NCc1ccccc1)c1cc(OCc2ccccc2)c2ccccc2c1 | 256 | 32 | 1020 | 1020 | 16 | 16 | 16 | 64 | 128 |  |  |  |  |  |  |  |  |  |  |  |  |
| NC(=O)c1cc(OCCNCc2ccco2)c2ccccc2c1 |  |  |  | 512 |  | 16 | 16 |  | 128 | Active | 1 | 256 | 16 | 1020 | 16 | 16 | inactive | 128 |  |  | Activity [19]: Active; Activity [20]: inactive |
| O=C(NC1CCCCC1)c1cc(OCc2ccccc2)c2ccccc2c1 | 256 | 32 | 1020 | 1020 | 16 | 16 | 16 | 32 | 64 |  |  |  |  |  |  |  |  |  | Active |  | MIC [22]: 2 µg/mL |
| O=C(NCc1ccco1)c1cc(OCc2ccccc2)c2ccccc2c1 |  |  |  | 256 |  | 2 | 4 |  | 128 | inactive | 2 |  |  | 1020 | 16 | 16 | Active | 128 | Active | 8 |  |
| CC(C)CCOc1cc(C(=O)NC2CCCCC2)cc2ccccc12 |  |  |  |  |  |  |  |  |  | inactive |  |  |  | 1020 | 2 | 16 | inactive | 16 |  | 8 | fold change (FC) [24]: 8; Activity [25]: Active; MIC [26]: 256 µg/mL; MIC [27]: 2 µg/mL; MIC [28]: 32 µg/mL; fold change (FC) [29]: 8 |
| CCCNC(=O)c1cc(OCCC(C)C)c2ccccc2c1 |  |  |  | 1020 |  | 4 | 4 |  | 16 | inactive | 1 | 256 | 16 | 1020 | 16 | 16 |  | 32 |  |  | fold change (FC) [24]: 4; MIC [26]: 256 µg/mL; MIC [27]: 2 µg/mL; MIC [28]: 32 µg/mL; fold change (FC) [29]: 4 |
